Test results from PubChem BioAssay AID2060899 (Molecular Pharmacology Branch, DTP, NCI, 2025).
Blank lines part the entries; values can stand above or below the molecule they belong to.

Tested on: 565726-208-R1-J5-PDC complex spheroids, growth inhibition
Experiment: Anticancer human tumor 565726-208-R1-J5-PDC patient-derived pancreatic adenocarcinoma cell line growth inhibition [RAS]
Details: for IC50: curve of first compound; for viability, T/C: stronger effect = lower value
Text: RAS pathway inhibitors in Combinations in Complex Spheroids
A high-throughput screen of multi-cell type tumor spheroids was designed to identify active combinations of RAS pathway inhibitors and targeted small molecules. Complex spheroids include a stromal component modeled by human endothelial cells (HUVEC) and fibroblasts modeled by human mesenchymal stem cells (MSCs). The concentration ranges selected for each drug and investigational agent were based upon clinically achievable concentrations if the clinical Cmax of the agent was known.
Compounds. The drugs and investigational agents: abemaciclib (NSC768073), cobimetinib (NSC768068), divarasib (GDC6063, NSC841802), docetaxel (NSC628503), GDC-1971 (RLY-1971, NSC841576), gemcitabine (NSC613327), inavolisib (NSC800729), ipatasertib (NSC767898), KB-0742 (NSC834161), MRTX-1133 (NSC836407), osimertinib (NSC779217), RMC-4630 (NSC839698), RMC-6236 (NSC851965), RMC-6291 (NSC852671), Ro-3306 (NSC812927), sapanisertib (NSC764658), SN-38 (NSC673596), staurosporine (NSC755774), SY5609 (NSC837396), and tovorafenib (DAY101, NSC766906), were obtained from the National Cancer Institute (NCI) Developmental Therapeutics Program Chemical Repository. The FDA-approved anticancer drug set is available from the NCI Developmental Therapeutics Program. […] The stock solutions were prepared in dimethyl sulfoxide (DMSO, Sigma-Aldrich, St. Louis, MO, cat. D2650) at 800-fold the tested concentration and stored at -70 degrees C prior to their use. All drugs and investigational agents were tested over a range starting from a high concentration at or near the clinical Cmax and decreasing in half-log increments. If the clinical Cmax for an agent had not been determined, the highest concentration tested was 10 microM.
Cell Culture. All cells were maintained in an incubator at 37 degrees C and 5% CO2 with 95% humidity. The PDC lines were cultured according to standard operating procedures established by the NCI PDMR. All PDCs were thawed and cultured in Matrigel-coated flasks prepared with a working solution of 1X Ham's F-12 nutrient mix, without supplementation (Invitrogen, Waltham, MA, cat. 11765054), 100 U/mL penicillin-streptomycin (Invitrogen, cat. 15140122), and 2.5% Matrigel (Corning Inc., Corning, NY, cat. 354248) for the first three passages. The 362531-283-R-J2-PDC and 782815-120-R-J1-PDC lines were cultured in 6C/Colon 1B media, which includes advanced DMEM/F-12 (Thermo Fisher Scientific, cat. 12634028), 10 mM HEPES (Thermo Fisher Scientific, cat. 15630080), 1X GlutaMAX supplement (Thermo Fisher Scientific, cat. 35050061), 0.1 mg/mL primocin (InvivoGen, San Diego, CA, cat. ant-pm-2), 10% defined fetal bovine serum, heat inactivated (HyClone Laboratories Inc., Logan, UT, cat. SH30070.03HI), 50% L-WRN conditioned media (ATCC, cat. CRL-3276), 1.25 mM N-Acetyl-L-cysteine (Sigma-Aldrich, cat. A9165), 10 mM nicotinamide (Sigma-Aldrich, cat. N0636), 1X B-27 supplement (Thermo Fisher Scientific, cat. 17504044), 1X N-2 supplement (Thermo Fisher Scientific, cat. 17502048), 50 ng/mL human EGF (Thermo Fisher Scientific, cat. PHG0311), and 10 microM Y-27632 dihydrochloride (Tocris Bioscience, cat. 1254). The K12877-001-R-J1-PDC line was cultured in 6I media, which includes all 6C/Colon 1B media plus 10 ng/mL human FGF-10 (PeproTech, cat. 100-26), 1 ng/mL human FGF-2 (PeproTech, cat. 100-18B), 1 µM prostaglandin E2 (Tocris Bioscience, cat. 2296), […] hydrocortisone (Sigma-Aldrich, cat. H4001), and […] bovine insulin (Sigma-Aldrich, cat. I6634). The K86415-001-R-J1-PDC line was cultured in 6D media, which includes all 6C/Colon 1B media components minus the L-WRN conditioned media. The 485176-168-R4-J1-PDC was cultured in PANC media, which includes all 6C/Colon 1B media plus 100 ng/mL human FGF-10 (PeproTech, cat. 100-26), 500 nM SB-431542 (Selleckchem, cat. S1067), and 10 nM gastrin (Tocris Bioscience, cat. 3006). […]

[1] = second compound 0.0316 µM, first compound 0.0316 µM
[2] = second compound 0.0316 µM, first compound 0.1 µM
[3] = second compound 0.1 µM, first compound 0.0316 µM
[4] = second compound 0.1 µM, first compound 0.1 µM
[5] = second compound 0.316 µM, first compound 0.0316 µM
[6] = second compound 0.316 µM, first compound 0.1 µM
[7] = second compound 1 µM, first compound 0.0316 µM
[8] = second compound 1 µM, first compound 0.1 µM
[9] = second compound 3.16 µM, first compound 0.0316 µM
[10] = second compound 3.16 µM, first compound 0.1 µM
[11] = second compound 10 µM, first compound 0.0316 µM
[12] = second compound 10 µM, first compound 0.1 µM
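Note: spheroids exposed to compounds for seven days before readout.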
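Throughout, for viability, T/C: 100% = DMSO vehicle control viability.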

IC50 (second compound 0.0316 µM): > 100 nM
IC50 (second compound 0.1 µM): > 100 nM
IC50 (second compound 0.316 µM): > 100 nM
IC50 (second compound 1 µM): 14.4 nM
IC50 (second compound 3.16 µM): 5.06 nM
IC50 (second compound 10 µM): 4.63 nM
Compound: CC(C)n1nc(-c2ccc3oc(N)nc3c2)c2c(N)ncnc21 + C#Cc1c(F)ccc2cc(O)cc(-c3ncc4c(N5CC6CCC(C5)N6)nc(OCC56CCCN5CC(F)C6)nc4c3F)c12
viability, T/C (second compound 0.0316 µM, first compound 0.000316 µM): 108%
viability, T/C (second compound 0.0316 µM, first compound 0.001 µM): 156%
viability, T/C (second compound 0.0316 µM, first compound 0.00316 µM): 87.2%
viability, T/C (second compound 0.0316 µM, first compound 0.01 µM): 68.4%
viability, T/C [1]: 63.7%
viability, T/C [2]: 49.2%
viability, T/C (second compound 0.1 µM, first compound 0.000316 µM): 123%
viability, T/C (second compound 0.1 µM, first compound 0.001 µM): 135%
viability, T/C (second compound 0.1 µM, first compound 0.00316 µM): 73.8%
viability, T/C (second compound 0.1 µM, first compound 0.01 µM): 72.5%
viability, T/C [3]: 59.7%
viability, T/C [4]: 51%
viability, T/C (second compound 0.316 µM, first compound 0.000316 µM): 123%
viability, T/C (second compound 0.316 µM, first compound 0.001 µM): 149%
viability, T/C (second compound 0.316 µM, first compound 0.00316 µM): 83.5%
viability, T/C (second compound 0.316 µM, first compound 0.01 µM): 59.8%
viability, T/C [5]: 50.6%
viability, T/C [6]: 42.8%
viability, T/C (second compound 1 µM, first compound 0.000316 µM): 126%
viability, T/C (second compound 1 µM, first compound 0.001 µM): 115%
viability, T/C (second compound 1 µM, first compound 0.00316 µM): 68.3%
viability, T/C (second compound 1 µM, first compound 0.01 µM): 62.4%
viability, T/C [7]: 41.7%
viability, T/C [8]: 40%
viability, T/C (second compound 3.16 µM, first compound 0.000316 µM): 111%
viability, T/C (second compound 3.16 µM, first compound 0.001 µM): 107%
viability, T/C (second compound 3.16 µM, first compound 0.00316 µM): 56.5%
viability, T/C (second compound 3.16 µM, first compound 0.01 µM): 47.7%
viability, T/C [9]: 32.9%
viability, T/C [10]: 30.6%
viability, T/C (second compound 10 µM, first compound 0.000316 µM): 96.9%
viability, T/C (second compound 10 µM, first compound 0.001 µM): 80.5%
viability, T/C (second compound 10 µM, first compound 0.00316 µM): 56.4%
viability, T/C (second compound 10 µM, first compound 0.01 µM): 36%
viability, T/C [11]: 25.6%
viability, T/C [12]: 18.4%

IC50 (second compound 0.0316 µM): > 10000 nM
IC50 (second compound 0.1 µM): > 10000 nM
IC50 (second compound 0.316 µM): > 10000 nM
IC50 (second compound 1 µM): > 10000 nM
IC50 (second compound 3.16 µM): 487 nM
IC50 (second compound 10 µM): 527 nM
Compound: CC(Nc1ccc2c(c1)OCCn1cc(N3C(=O)OCC3C(F)F)nc1-2)C(N)=O (centres undefined) + C#Cc1c(F)ccc2cc(O)cc(-c3ncc4c(N5CC6CCC(C5)N6)nc(OCC56CCCN5CC(F)C6)nc4c3F)c12
viability, T/C [1]: 73.2%
viability, T/C [2]: 101%
viability, T/C (second compound 0.0316 µM, first compound 0.316 µM): 86.5%
viability, T/C (second compound 0.0316 µM, first compound 1 µM): 60.4%
viability, T/C (second compound 0.0316 µM, first compound 3.16 µM): 92.9%
viability, T/C (second compound 0.0316 µM, first compound 10 µM): 70.2%
viability, T/C [3]: 87.5%
viability, T/C [4]: 102%
viability, T/C (second compound 0.1 µM, first compound 0.316 µM): 73.9%
viability, T/C (second compound 0.1 µM, first compound 1 µM): 53.5%
viability, T/C (second compound 0.1 µM, first compound 3.16 µM): 81.2%
viability, T/C (second compound 0.1 µM, first compound 10 µM): 65.5%
viability, T/C [5]: 105%
viability, T/C [6]: 109%
viability, T/C (second compound 0.316 µM, first compound 0.316 µM): 72.9%
viability, T/C (second compound 0.316 µM, first compound 1 µM): 55.1%
viability, T/C (second compound 0.316 µM, first compound 3.16 µM): 69.2%
viability, T/C (second compound 0.316 µM, first compound 10 µM): 62.5%
viability, T/C [7]: 114%
viability, T/C [8]: 102%
viability, T/C (second compound 1 µM, first compound 0.316 µM): 57.2%
viability, T/C (second compound 1 µM, first compound 1 µM): 60.2%
viability, T/C (second compound 1 µM, first compound 3.16 µM): 47.4%
viability, T/C (second compound 1 µM, first compound 10 µM): 54.6%
viability, T/C [9]: 90.5%
viability, T/C [10]: 80%
viability, T/C (second compound 3.16 µM, first compound 0.316 µM): 56.4%
viability, T/C (second compound 3.16 µM, first compound 1 µM): 38.7%
viability, T/C (second compound 3.16 µM, first compound 3.16 µM): 35.6%
viability, T/C (second compound 3.16 µM, first compound 10 µM): 45.3%
viability, T/C [11]: 60.8%
viability, T/C [12]: 68.9%
viability, T/C (second compound 10 µM, first compound 0.316 µM): 51.1%
viability, T/C (second compound 10 µM, first compound 1 µM): 46.7%
viability, T/C (second compound 10 µM, first compound 3.16 µM): 30.7%
viability, T/C (second compound 10 µM, first compound 10 µM): 34.7%
